# Source: patent publication US20220288057A1, “CONJOINT THERAPY FOR TREATING SEIZURE DISORDERS” (XENON PHARMACEUTICALS INC., priority 2021, published 2022)
# Like-named read-outs stand apart in the source and are kept apart here.
# Assay: Terminal plasma and brain concentrations in AC-MES studies (UHPLC-MS/MS)
# Format: in vivo, mouse
# Conditions: male, CF-1, mouse, in vivo, po; for Kp at 30 min: read-out: B/P Ratio (brain to plasma ratio); for Kp at 0.5 h: read-out: B/P Ratio; for concentration at 30 min: CF-1 mice
# Method: Sample Collection and Preparation: Mice were anesthetized by isoflurane inhalation (according to SOP TECH-018) until they reached a surgical plane of anesthesia. Then a syringe (1 mL syringe with a 22 gauge needle) was inserted under the sternum into the heart (according to SOP TECH-031). Approximately 0.5 mL of blood was collected, deposited into a K2EDTA tube, and stored on ice. Animals were then euthanized by cervical dislocation. Brains were removed, placed into a pre-weighed vial, and snap frozen on dry ice. At the end of the sample collection, blood was centrifuged at 4000 rpm for 10 minutes at 4° C., and the plasma pipetted into a labeled tube. All samples were stored in a −80° C. freezer until the time of bioanalysis.
# Plasma Samples: Extraction of plasma samples was carried out by protein precipitation using acetonitrile. Diluted plasma samples (50 μL) were mixed with 50 μL of internal standard (IS) solution in 1:1 acetonitrile:water (v:v) followed by addition of 200 μL of acetonitrile. Samples were vortexed for 30 seconds, centrifuged at 13,000 rpm for 20 minutes, decanted into a 96-well plate and further centrifuged at 4000 rpm for 20 minutes. The samples were analyzed by ultra-high performance liquid chromatography electrospray ionization tandem mass spectrometry (UHPLC-ESI-MS/MS) as described in the bioanalysis procedure below.
# Brain Samples: Prior to extraction, pre-weighed whole brains were homogenized in 1:1 acetonitrile:water (v:v) (2 mL per mouse brain) using an IKA T18 Ultra-Turrax Homogenizer at the setting of 4 for approximately 1 minute. The homogenate was centrifuged at 13,000 rpm for 20 minutes and 50 μL of the supernatant were treated exactly as described in above for plasma samples.
# Bioanalysis Procedures: All samples, including plasma and brain homogenate extracts (including calibration standards and quality control (QC) samples prepared in K2EDTA mouse plasma), were extracted by protein precipitation. To each 50 μL aliquot of sample, 50 μL of IS solution (2500 ng/mL of Lacosamide in water:acetonitrile (1:1)) and 50 μL of 6% (v:v) phosphoric acid in water were added, then 200 μL acetonitrile was added. The samples in 1.7 mL tubes were vortex-mixed then centrifuged for 20 minutes at 13,000 rpm. Fifty microliters of the supernatant was mixed with 150 μL of water:acetonitrile (1:1) in a 96 well plate, which was centrifuged post-mixing for 20 minutes at 4000 rpm. The samples were then ready for UHPLC-MS/MS analysis.
# Samples were analyzed for Compound A by a research-grade UHPLC-MS/MS method using the conditions listed below.
# Samples were analyzed for Lacosamide by a research-grade UHPLC-MS/MS method using the conditions listed below.
# At least three QC samples, one at each concentration, had to show back-calculated values within ±20% of their nominal concentrations for the whole sample batch to be valid.
# The Blinding and Randomization, Clinical Observations, AC-MES Assay, Sample Collection and Preparation, Plasma and Brain Samples Analysis, and Bioanalysis Procedures in Example 4 were identical to those used in Example 2.
# Sample concentration determination and Data Processing and Analysis in Example 4 was identical to Example 2.
smiles,measurement,setting,value
"Cc1cc(N2CCc3cc(F)ccc3C2)cc(C)c1NC(=O)CC(C)(C)C [Compound A, N-[4-(6-fluoro-3,4-dihydro-1H-isoquinolin-2-yl)-2,6-dimethylphenyl]-3,3-dimethylbutanamide]",Kp at 30 min,"1 mg/kg, Study 4A, Compound A 1 mg/kg single oral dose",1.85
same,Kp at 0.5 h,"3 mg/kg, Study 2C, Compound A 3 mg/kg PO, alone",1.79
same,concentration at 0.5 h,"3 mg/kg, Study 2C, Compound A 3 mg/kg PO, alone, read-out: Mean Brain",510 nM
same,concentration at 0.5 h,"3 mg/kg, Study 2C, Compound A 3 mg/kg PO, alone, read-out: Mean Plasma",284 nM
same,concentration at 0.5 h,"3 mg/kg, Study 4C, Compound A 3 mg/kg PO, read-out: plasma concentration",280 nM
same,concentration at 30 min,"3 mg/kg, Study 4C, Compound A 3 mg/kg single oral dose, read-out: Mean Brain",510 nM
same,concentration at 30 min,"3 mg/kg, Study 4C, Compound A 3 mg/kg single oral dose, read-out: Mean Plasma",280 nM
same,Kp at 30 min,"3 mg/kg, Study 4C, Compound A 3 mg/kg single oral dose",1.79
same,Kp at 0.5 h,"5 mg/kg, Study 2A, Compound A 5 mg/kg PO",1.45
same,concentration at 0.5 h,"5 mg/kg, Study 2A, Compound A 5 mg/kg PO, read-out: Mean Brain",400 nM
same,concentration at 0.5 h,"5 mg/kg, Study 2A, Compound A 5 mg/kg PO, read-out: Mean Plasma",276 nM
same,Kp at 0.5 h,"5 mg/kg, Study 2B, Compound A 5 mg/kg PO",1.51
same,concentration at 0.5 h,"5 mg/kg, Study 2B, Compound A 5 mg/kg PO, read-out: Mean Brain",710 nM
same,concentration at 0.5 h,"5 mg/kg, Study 4A, Compound A 5 mg/kg PO, read-out: mean plasma concentration",280 nM
same,Kp at 30 min,"5 mg/kg, Study 4A, Compound A 5 mg/kg single oral dose",1.45
same,concentration at 0.5 h,"5 mg/kg, Study 4B, Compound A 5 mg/kg PO, read-out: mean plasma concentration",470 nM
same,concentration at 30 min,"5 mg/kg, Study 4B, Compound A 5 mg/kg single oral dose, read-out: Mean Brain",710 nM
same,concentration at 30 min,"5 mg/kg, Study 4B, Compound A 5 mg/kg single oral dose, read-out: Mean Plasma",1000 nM
same,Kp at 30 min,"5 mg/kg, Study 4B, Compound A 5 mg/kg single oral dose",1.51
same,Kp at 0.5 h,"7.5 mg/kg, Study 2B, Compound A 7.5 mg/kg PO",1.64
same,concentration at 0.5 h,"7.5 mg/kg, Study 2B, Compound A 7.5 mg/kg PO, read-out: Mean Brain",870 nM
same,concentration at 0.5 h,"7.5 mg/kg, Study 2B, Compound A 7.5 mg/kg PO, read-out: Mean Plasma",530 nM
same,concentration at 30 min,"7.5 mg/kg, Study 4B, Compound A 7.5 mg/kg single oral dose, read-out: Mean Brain",870 nM
same,concentration at 30 min,"7.5 mg/kg, Study 4B, Compound A 7.5 mg/kg single oral dose, read-out: Mean Plasma",530 nM
same,Kp at 30 min,"7.5 mg/kg, Study 4B, Compound A 7.5 mg/kg single oral dose",1.64
same,Kp at 0.5 h,"10 mg/kg, Study 2A, Compound A 10 mg/kg PO",1.36
same,concentration at 0.5 h,"10 mg/kg, Study 2A, Compound A 10 mg/kg PO, read-out: Mean Brain",500 nM
same,concentration at 0.5 h,"10 mg/kg, Study 2A, Compound A 10 mg/kg PO, read-out: Mean Plasma",366 nM
same,Kp at 0.5 h,"10 mg/kg, Study 2B, Compound A 10 mg/kg PO",1.64
same,concentration at 0.5 h,"10 mg/kg, Study 2B, Compound A 10 mg/kg PO, read-out: Mean Brain",910 nM
same,concentration at 0.5 h,"10 mg/kg, Study 2B, Compound A 10 mg/kg PO, read-out: Mean Plasma",553 nM
same,concentration at 0.5 h,"10 mg/kg, Study 4A, Compound A 10 mg/kg PO, read-out: mean plasma concentration",370 nM
same,Kp at 30 min,"10 mg/kg, Study 4A, Compound A 10 mg/kg single oral dose",1.36
same,concentration at 0.5 h,"10 mg/kg, Study 4B, Compound A 10 mg/kg PO, read-out: mean plasma concentration",550 nM
same,concentration at 30 min,"10 mg/kg, Study 4B, Compound A 10 mg/kg single oral dose, read-out: Mean Brain",910 nM
same,concentration at 30 min,"10 mg/kg, Study 4B, Compound A 10 mg/kg single oral dose, read-out: Mean Plasma",550 nM
same,Kp at 30 min,"10 mg/kg, Study 4B, Compound A 10 mg/kg single oral dose",1.64
